Laboratory results published in patent publication US20180207111A1, “IMMUNOTHERAPY FOR CASR-EXPRESSING CANCER (E.G. NEUROBLASTOMA)” (HOSPITAL SANT JOAN DE DEU, priority 2015, published 2018).

Columns and labels:
SK-N-LP CaSR/GFP = assay: RT-qPCR mRNA expression in SK-N-LP CaSR/GFP neuroblastoma cells grown with Cinacalcet; assay type: cell-based, Homo sapiens; details: 1 μM Cinacalcet vs DMSO, up to 21 days
Description: (§1) Three neuroblastoma cell lines LA-N-1, SK-N-LP and SH-SY5Y were used for this purpose. […] No expression of the CaSR is detectable in SH-SY5Y either. Thus, SK-N-LP and SH-SY5Y were stably transfected with pCMV-CaSR-GFP or pCMV-GFP. All cell lines were grown in the presence of 1 μM Cinacalcet (Selleck Chemicals, S1260) or DMSO for 21 days in P100 plates. Morphology was assessed daily. Total RNA was isolated at days 1, 3, 5, 7, 10, 14 and 21. Several markers were analyzed by RT-qPCR using SYBRgreen and specific primers or Taqman technology and gene-specific Assays-on-Demand (Applied Biosystems) (Table 1).
(§2) These features reached maximal expression between days 7 and 14 (FIG. 1). […] Neuroblastoma cytodifferentiation is an indication of this tumor becoming more benign, less proliferative. […] Moreover, upregulation of these differentiation-associated genes and CTAs both in vitro and in vivo (see Examples 2-4) validates the proposed in vitro model (doses used, time of exposure, etc) as a good model to evaluate neuroblastoma response to treatment with Cinacalcet.

SH-SY5Y CaSR/GFP = assay: RT-qPCR mRNA expression in SH-SY5Y CaSR/GFP neuroblastoma cells grown with Cinacalcet; assay type: cell-based, Homo sapiens; details: 1 μM Cinacalcet vs DMSO, up to 21 days
Description: as §1, §2

LA-N-1 xenografts = assay: RT-qPCR mRNA expression in xenografts; assay type: in vivo, human
Description: Total RNA was isolated from 8 xenografts exposed to Cinacalcet (C) and 8 from the control group (V). These were the last 8 tumors excised in each group, so that analyzed xenografts were those exposed to the longest period of treatment (V5-V12 and C4-C11). Two different mRNA expression analyses were conducted: Genome-wide expression analysis by microarrays (Example 3) and by RT-qPCR (Example 4).
Validation of microarrays data was conducted by means of RT-qPCR. This technique was performed using SYBRgreen and specific primers or Taqman technology and gene-specific Assays-on-Demand (Applied Biosystems) (Table 1). This technique was also used to analyze the expression of other CTAs (members of the MAGE family and CTCFL), genes associated with differentiation and calcium-signaling pathways in further detail. Upregulation of CTCFL (FIG. 5A), MAGE A2, MAGE A3 and SSX4/48 (FIG. 5B), NTRK3 (FIG. 5C), ADCY8, PRKCA and RYR2 (FIG. 5D) was detected mainly in the two specimens exposed for the longest time to Cinacalcet (C10-C11).

[1] = test system: LA-N-1 cells subcutaneous xenograft; assay: In vivo neuroblastoma model: tumor growth / event-free survival; design: species or system mice; details: 10 mg/kg/day oral gavage 6 days per week vs vehicle; log-rank P=0.034; FIG. 2A
Description: An in vivo model of neuroblastoma was generated in four to six-week-old female athymic Nude-Foxn1 nu/nu mice (Charles Rivers), wherein LA-N-1 cells (10^7) were subcutaneously inoculated. Tumors were allowed to grow until dimensions reached 7×7 mm. Then mice were randomized to receive either vehicle (described below) or Cinacalcet (10 mg/kg/day) by oral gavage 6 days per week until tumor volume reached 2 cm^3. Cinacalcet was prepared with Mimpara® tablets (Amgen). Following homogenization of the Mimpara® tablets in a mortar, the resulting powder was reconstituted with 0.5% Tween 20 (20%, v/v) and carboxymethylcellulose (0.25%, w/v) to a final concentration of […]. Each dose contained 5 μL of this mixture per gram of mouse weight. Dimensions of tumors were measured thrice a week using a digital caliper. Tumor volume was calculated as L×W^2/2 in which “L” indicates length in mm and “W” indicates width in mm. At the end of the experiment (each mouse was sacrificed when the corresponding xenograft reached the final pre-determined volume 2 cm^3), tumors were excised and half of each specimen was frozen in liquid nitrogen for molecular analyses and the other was fixed in 10% formalin. For event-free survival (EFS) analysis, an event was defined as tumor size that exceeded 2 cm^3. The log-rank statistic was used to compare the EFS probabilities between groups. […]

LA-N-1 cells = assay: Morphological assessment of neuroblastoma cells exposed to Cinacalcet; assay type: cell-based, Homo sapiens; details: 1 μM Cinacalcet vs DMSO; day 3
Description: FIG. 1 is a micrograph showing the morphological assessment of LA-N-1 cells exposed to 1 μM Cinacalcet (C) or DMSO (vehicle (V)) for 3 days (3d) and 14 days (14d).
as §1, §2

[2] = Plasmatic ionic Ca2+ and tolerability in xenograft-bearing mice; assay type: in vivo
Excerpt: FIG. 2 comprises graphs showing (A) Effect of Cinacalcet treatment on survival (%) in an in vivo neuroblastoma model treated with Cinacalcet (triangle) or vehicle (circle) over time (days); (B) Plasmatic ionic Ca^2+ concentrations (mmol/L) in mice receiving Cinacalcet (triangle) or vehicle (circle) over time (weeks).
An in vivo model of neuroblastoma was generated in four to six-week-old female athymic Nude-Foxn1 nu/nu mice (Charles Rivers), wherein LA-N-1 cells (10^7) were subcutaneously inoculated. Tumors were allowed to grow until dimensions reached 7×7 mm. Then mice were randomized to receive either vehicle (described below) or Cinacalcet (10 mg/kg/day) by oral gavage 6 days per week until tumor volume reached 2 cm^3. Cinacalcet was prepared with Mimpara® tablets (Amgen). […] Dimensions of tumors were measured thrice a week using a digital caliper. Tumor volume was calculated as L×W^2/2 in which “L” indicates length in mm and “W” indicates width in mm. At the end of the experiment (each mouse was sacrificed when the corresponding xenograft reached the final pre-determined volume 2 cm^3), tumors were excised and half of each specimen was frozen in liquid nitrogen for molecular analyses and the other was fixed in 10% formalin. […]

[3] = xenografts, RT-qPCR, mainly in C10-C11 (longest exposure), FIG. 5B
[4] = xenografts, RT-qPCR, mainly in C10-C11 (longest exposure), FIG. 5D

For C[C@@H](NCCCc1cccc(C(F)(F)F)c1)c1cccc2ccccc12 [Cinacalcet], the “CTCFL mRNA fold increase” value (SK-N-LP CaSR/GFP) was “no expression”, the “MAGEA2 mRNA fold increase” value (SK-N-LP CaSR/GFP) was 36.6 fold and the “MAGEA3 mRNA fold increase” value (SK-N-LP CaSR/GFP) was 155.4 fold. For the same compound, the “NFL mRNA fold increase” value (SK-N-LP CaSR/GFP) was 7.2 fold, the “NTRK1 mRNA fold increase” value (SK-N-LP CaSR/GFP) was 3.6 fold and the “NTRK3 mRNA fold increase” value (SK-N-LP CaSR/GFP) was 2.6 fold. For the same compound, the “S100-β mRNA fold increase” value (SK-N-LP CaSR/GFP) was 72.3 fold, the “SSX4/4B mRNA fold increase” value (SK-N-LP CaSR/GFP) was 69 fold and the “TUBB3 mRNA fold increase” value (SK-N-LP CaSR/GFP) was 2.8 fold. The “GAGE-P1 mRNA fold increase” value (SK-N-LP CaSR/GFP; primer pair GAGE P1) was 4.1 fold, the “GAGE-P2 mRNA fold increase” value (SK-N-LP CaSR/GFP; primer pair GAGE P2) was 5.7 fold and the “GAGE-P3 mRNA fold increase” value (SK-N-LP CaSR/GFP; primer pair GAGE P3) was 6.3 fold. The “CTCFL mRNA fold increase” value (SH-SY5Y CaSR/GFP) was “no expression”, the “MAGEA2 mRNA fold increase” value (SH-SY5Y CaSR/GFP) was 2.4 fold and the “MAGEA3 mRNA fold increase” value (SH-SY5Y CaSR/GFP) was 14.6 fold. For the same compound, the “NFL mRNA fold increase” value (SH-SY5Y CaSR/GFP) was 2.3 fold, the “NTRK1 mRNA fold increase” value (SH-SY5Y CaSR/GFP) was 2.9 fold and the “NTRK3 mRNA fold increase” value (SH-SY5Y CaSR/GFP) was 4.7 fold. The “S100-β mRNA fold increase” value (SH-SY5Y CaSR/GFP) was 2.2 fold, the “SSX4/4B mRNA fold increase” value (SH-SY5Y CaSR/GFP) was 3.45 fold and the “TUBB3 mRNA fold increase” value (SH-SY5Y CaSR/GFP) was 1.7 fold. The “GAGE-P1 mRNA fold increase” value (SH-SY5Y CaSR/GFP; primer pair GAGE P1) was 1.4 fold, the “GAGE-P2 mRNA fold increase” value (SH-SY5Y CaSR/GFP; primer pair GAGE P2) was 7.9 fold and the “GAGE-P3 mRNA fold increase” value (SH-SY5Y CaSR/GFP; primer pair GAGE P3) was 2.5 fold. For the same compound, the “Increase in relative mRNA expression of GAGE mRNA” value (LA-N-1 xenografts; xenograft specimen C11, long-term treatment, data not shown) was “up to 100 fold”, the “Relative mRNA expression of CTCFL” value (LA-N-1 xenografts; xenografts, RT-qPCR, mainly in C10-C11 (longest exposure), FIG. 5A) was “Upregulation” and the “Relative mRNA expression of MAGE A2” value (LA-N-1 xenografts; [3]) was “Upregulation”. For the same compound, the “Relative mRNA expression of MAGE A3” value (LA-N-1 xenografts; [3]) was “Upregulation”, the “Relative mRNA expression of SSX4/48” value (LA-N-1 xenografts; [3]) was “Upregulation” and the “Relative mRNA expression of NTRK3” value (LA-N-1 xenografts; xenografts, RT-qPCR, mainly in C10-C11 (longest exposure), FIG. 5C) was “Upregulation”. For the same compound, the “Relative mRNA expression of ADCY8” value (LA-N-1 xenografts; [4]) was “Upregulation”, the “Relative mRNA expression of PRKCA” value (LA-N-1 xenografts; [4]) was “Upregulation” and the “Relative mRNA expression of RYR2” value (LA-N-1 xenografts; [4]) was “Upregulation”. For the same compound, the “Tumor growth (event-free survival, event = tumor size > 2 cm^3)” value [1] was “significant tumor growth inhibition”, the “Morphological features of neuronal differentiation” value (LA-N-1 cells) was “extensive neurite outgrowth” and the “Plasmatic ionic Ca2+ concentration” value ([2]; mice, 10 mg/kg/day oral gavage, FIG. 2B) was “Mild, non-symptomatic, hypocalcemia”. The Signs of toxicity ([2]; mouse, in vivo, po, 10 mg/kg/day) was “No signs of toxicity were observed”.
